From PubChem BioAssay (NCI) come the findings set out here.

Common to all, as to assay: NCI-60 cell line screen, 48 h
In assay [1] the test system is 786-0 renal.
In assay [2] the test system is CCRF-CEM leukemia.
Assay [3] deals with NCI-H522 lung.
Assay [4] deals with NCI/ADR-RES ovarian.
Assay [5] concerns PC-3 prostate.
Assay [6] has as its system RPMI-8226 leukemia.
Assay [7] has as its system SK-OV-3 ovarian.
Assay [8] concerns SNB-19 CNS.
In assay [9] the test system is SNB-75 CNS.
Assay [10] deals with UACC-62 melanoma.

Molecules are shown by their SMILES.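 Tested at 5 concentrations; 48 h exposure; 96-well plates; endpoints linearly interpolated, else capped at highest concentration. Here, GI50 denotes the concentration required for 50% inhibition of growth. Definition used: TGI = concentration required for complete inhibition of growth.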 Some results are limits rather than exact numbers.

On to `CC(=C(c1ccc(OCCN2CCCCC2)cc1)c1ccc(OCCN2CCCCC2)cc1)c1ccc(Cl)cc1`, for which the GI50 in [1] is 0.419 µM; in assay [2], 0.493 µM; in assay [3] it was 0.411 µM; in [4] it was 0.446 µM; in [5], 0.412 µM; in assay [6], 0.53 µM. Also, the GI50 in assay [7] was 0.428 µM; in [8], 0.438 µM; in assay [9], 0.325 µM; in [10] it was 0.442 µM. Also, the TGI in [1] was found to be 0.805 µM; in assay [2] it was 1.56 µM; in assay [3], 0.872 µM; in [4], 0.858 µM; in assay [5], 0.825 µM; in assay [6], 1.19 µM. Besides, the TGI in assay [7] was 0.806 µM; in assay [8], 0.81 µM; in [9], 0.673 µM; in assay [10] it was 0.845 µM.

As for `Cc1ccc(NC2=C3CCCCC3OC2=O)cc1` (centres undefined), the GI50 in [1] is over 100 µM; in assay [2], 21.6 µM; in [3], 29 µM; in assay [4], over 100 µM; in assay [5], 49.7 µM; in assay [6], 34.5 µM. Further, the GI50 in assay [7] was over 100 µM; in assay [8] it was 63.8 µM; in assay [9], 71.9 µM; in [10] it was 47 µM. Besides, the TGI in assay [1] is over 100 µM; in [2], 84.2 µM; in [3] it was over 100 µM; in [4], over 100 µM; in [5] it was over 100 µM; in [6], over 100 µM. Moreover, the TGI in assay [7], in assay [8], in assay [9] and in [10] was over 100 µM throughout.

Regarding `Cc1nnc2ccnn2c1C`, the GI50 in assay [1] is over 100 µM; in assay [2], over 100 µM; in [3], 66.3 µM; in assay [4], 20.5 µM; in [5], over 100 µM; in assay [6], over 100 µM. Besides, the GI50 in assay [7], in [8], in assay [9] and in assay [10] was over 100 µM in each case. Further, the TGI was over 100 µM in assay [1]; over 100 µM in assay [2]; over 100 µM in [3]; 43.4 µM in assay [4]; over 100 µM in [5]; over 100 µM in assay [6]. The TGI in assay [7], in assay [8], in assay [9] and in assay [10] was over 100 µM in each case.

With `O=C(Nc1nn2c(-c3cc(C(F)(F)F)cc(C(F)(F)F)c3)nnc2s1)C1CCCC1`, the GI50 in assay [1] was 0.663 µM; in assay [2], 0.459 µM; in assay [3], 0.277 µM; in assay [4], 0.641 µM; in assay [5] it was 0.603 µM; in assay [6], 0.368 µM. In addition, the GI50 in assay [7] is 1.76 µM; in assay [8], 0.614 µM; in [9] it was 1.43 µM; in [10], 0.253 µM. Moreover, the TGI in [1] was over 32.8 µM; in assay [2], over 82.1 µM; in assay [3], 2.29 µM; in [4], over 28.5 µM; in assay [5], over 100 µM; in [6], over 25.6 µM. The TGI in assay [7] was 45.8 µM; in assay [8], over 100 µM; in assay [9], over 28.2 µM.

Turning to `Nc1nc2[nH]cc(CCc3ccc(C(=O)N[C@@H](CCC(=O)O)C(=O)O)cc3)c2c(=O)[nH]1`, the GI50 is 0.0611 µM in assay [1]; 0.211 µM in [2]; over 100 µM in assay [4]; over 51.9 µM in [5]; over 65.9 µM in assay [6]. The TGI in assay [1], in assay [2], in assay [3], in assay [4], in assay [5] and in [6] was over 100 µM throughout. In addition, the TGI in [7], in assay [8], in assay [9] and in assay [10] was over 100 µM in each case.

As for `COC1=CC(=O)C(C2(OC(C)C)OC(=O)C(Cl)=C2Cl)=CC1=O` (centres undefined), the TGI is 86.4 µM in assay [1]; over 100 µM in assay [2]; 96 µM in assay [3]; over 100 µM in [4]; over 100 µM in [5]; over 100 µM in [6]. The TGI in [7], in assay [8], in assay [9] and in assay [10] was over 100 µM each time.

For the molecule `Cc1cc2c(cc1C)[n+](=O)c(C(=O)c1ccccc1)c(C(F)F)n2[O-]`, the GI50 in assay [1] was 32 µM; in assay [2], 5.12 µM; in assay [3], 7.82 µM; in assay [4] it was 36.3 µM; in assay [5], 16.1 µM; in assay [6], 5.81 µM. In addition, the GI50 was 54.5 µM in [7], 44.2 µM in assay [8], 60.9 µM in assay [9] and 18.4 µM in [10]. The TGI was over 100 µM in assay [1]; 29.6 µM in assay [2]; 27.2 µM in assay [3]; over 100 µM in assay [4]; over 100 µM in [5]; 43.9 µM in [6]. Further, the TGI is over 100 µM in assay [7], over 100 µM in [8], over 100 µM in [9] and 96.9 µM in assay [10].

Regarding `O=C1CSC(=S)N1/N=C/c1ccc(Cl)c([N+](=O)[O-])c1`, the TGI was over 100 µM in assay [1]; over 100 µM in assay [2]; 36.8 µM in [3]; 52.5 µM in assay [4]; 65.6 µM in assay [5]; over 100 µM in [6]. Besides, the TGI in assay [7] is over 100 µM; in assay [8], 60.8 µM; in assay [9], over 100 µM; in [10], 64.8 µM.

As to `Br[Se]c1ccccn1`, the TGI in assay [1] is 32.6 µM; in [2], over 100 µM; in [3], 30.4 µM; in [4] it was 61.6 µM; in assay [5], 30 µM; in [6], 60.9 µM. Also, the TGI in [7] stood at 34.8 µM; in assay [8], 24.8 µM; in assay [9] it was 30.7 µM; in assay [10], 30.9 µM.
